Assay results published in PMC7034945 (RSC Advances, 2019).
Read-outs that look alike come from different tables or passages of the source.

Legend:
HIV-1 NL4-3 virus = test: Anti-HIV-1 activity, multicycle assay with HIV-1 NL4-3 in TZM-bl cells; assay type: cell-based; settings: for anti-HIV-1 activity (in words): at the test concentration
HIV-1 CA monomer = HIV-1 CA monomer (Human immunodeficiency virus type 1 group M subtype B, UniProt P12493); test: biochemical; assay type: binding, HIV-1 NL4-3
in vitro = settings: human
TZM-bl cells = settings: uninfected TZM-bl cells, NA = no cytotoxicity at the test concentration
[1] = measured by HPLC
[2] = Table 2, HIV-1 NL4-3, TZM-bl cells, NA = no anti-HIV-1 activity at the test concentration
[3] = Table 1, HIV-1 NL4-3, TZM-bl cells, NA = no anti-HIV-1 activity at the test concentration

In the case of COc1ccc(N(C)C(=O)[C@H](Cc2cc(F)cc(F)c2)NC(=O)c2cccc(-c3cn(Cc4ccc([N+](=O)[O-])cc4)nn3)c2)cc1 [II-10c, (S)-N-(3-(3,5-Difluorophenyl)-1-((4-methoxyphenyl)(methyl)amino)-1-oxopropan-2-yl)-3-(1-(4-nitrobenzyl)-1H-1,2,3-triazol-4-yl)benzamide], the EC50 (HIV-1 NL4-3 virus; Human immunodeficiency virus 1, NL43, TZM-bl) is reported as 2.13 ± 0.75 µM, the “anti-HIV-1 activity (in words)” value (HIV-1 NL4-3 virus; TZM-bl cells) is reported as “exhibited anti-HIV-1 activity at the test concentration” and the “SI (selectivity index, ratio of CC50/EC50)” value (HIV-1 NL4-3 virus; Table 2, TZM-bl cells) is reported as greater than 16.66. It also gave a Kd (HIV-1 CA monomer) of 2.2 ± 0.23 µM, a Papp A→B (in vitro; Caco-2, pH 7.4, Mean Papp A to B, Caco-2, 2 μM, 2 hours, pH 7.40) of less than 0.01 ×10⁻⁶ cm/s and a Papp A→B (in vitro; Caco-2, pH 7.4, Rank Papp, Caco-2, A to B, permeability class) of less than 0.5 ×10⁻⁶ cm/s. For the same compound, the Papp A→B (in vitro; Caco-2, pH 7.4, apparent permeability (Papp), Caco-2 cells) was less than 0.01 ×10⁻⁶ cm/s.

With “(S)-N-(1-((4-Methoxyphenyl)(methyl)amino)-1-oxo-3-phenylpropan-2-yl)-3-(1-(3-(thiophen-3-yl)propyl)-1H-1,2,3-triazol-4-yl)benzamide [III-15h]” the “anti-HIV-1 activity (in words)” value (HIV-1 NL4-3 virus; TZM-bl cells) was “exhibited anti-HIV-1 activity at the test concentration”, the EC50 (HIV-1 NL4-3 virus; [2]) was 9.37 ± 3.18 µM and the CC50 (TZM-bl cells; Table 2) was greater than 35.4 µM. For the same compound, the “log P” value [1] was 2.36.

In the case of “Ethyl (S)-2-(4-(3-((1-((4-methoxyphenyl)(methyl)amino)-1-oxo-3-phenylpropan-2-yl)carbamoyl)phenyl)-1H-1,2,3-triazol-1-yl)acetate [III-15n]”, the “anti-HIV-1 activity (in words)” value (HIV-1 NL4-3 virus; TZM-bl cells) is reported as “lost anti-HIV-1 activity completely”, the EC50 (HIV-1 NL4-3 virus; [2]) is reported as greater than 36 µM and the CC50 (TZM-bl cells; Table 2) is reported as greater than 36 µM.

In the case of “Methyl (S)-4-(4-((3-(3,5-difluorophenyl)-1-((4-methoxyphenyl)(methyl)amino)-1-oxopropan-2-yl)carbamoyl)-1H-1,2,3-triazol-1-yl)benzoate [I-8p]”, the EC50 (HIV-1 NL4-3 virus; [3]) is reported as 14.2 ± 3.46 µM and the CC50 (TZM-bl cells; Table 1) is reported as greater than 18.2 µM.

In the case of “N-((S)-3-(3,5-Difluorophenyl)-1-((4-methoxyphenyl)(methyl)amino)-1-oxopropan-2-yl)-1-(2-(hydroxymethyl)-5-(5-methyl-2,6-dioxo-1,2,3,6-tetrahydropyridin-3-yl)tetrahydrofuran-3-yl)-1H-1,2,3-triazole-4-carboxamide [I-8u]”, the “anti-HIV-1 activity (in words)” value (HIV-1 NL4-3 virus; TZM-bl cells) is reported as “lost its anti-HIV-1 activity”, the EC50 (HIV-1 NL4-3 virus; [3]) is reported as greater than 15.6 µM and the CC50 (TZM-bl cells; Table 1) is reported as greater than 15.6 µM.

Compound “N-((S)-3-(3,5-Difluorophenyl)-1-((4-methoxyphenyl)(methyl)amino)-1-oxopropan-2-yl)-3-(1-(2-(hydroxymethyl)-5-(5-methyl-2,6-dioxo-1,2,3,6-tetrahydropyridin-3-yl)tetrahydrofuran-3-yl)-1H-1,2,3-triazol-4-yl)benzamide [II-10o]” has an EC50 (HIV-1 NL4-3 virus; [2]) greater than 27.9 µM and a CC50 (TZM-bl cells; Table 2) greater than 27.9 µM.
